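Cells were grown in 96-well plates and exposed to each compound for 48 hours at five concentrations; endpoints were interpolated linearly between bracketing concentrations, or set to the highest concentration if not reached. GI50: concentration for 50% inhibition of growth. Definition used: TGI = concentration required for complete inhibition of growth.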
Experiments:
Experiment in all cases: inhibition of tumour cell growth, NCI panel, 48 h
[1] = test system: NCI/ADR-RES ovarian
[2] = test system: MDA-MB-435
[3] = test system: SF-539 CNS
[4] = test system: IGROV1 ovarian
[5] = test system: HCT-116 colon
[6] = test system: COLO 205 colon
[7] = test system: OVCAR-5 ovarian
[8] = test system: UACC-257 melanoma
[9] = test system: SF-268 CNS
[10] = test system: SK-MEL-2 melanoma

| SMILES | TGI [1] [µM] | TGI [2] [µM] | TGI [3] [µM] | TGI [4] [µM] | TGI [5] [µM] | TGI [6] [µM] | TGI [7] [µM] | TGI [8] [µM] | TGI [9] [µM] | TGI [10] [µM] | GI50 [1] [µM] | GI50 [2] [µM] | GI50 [3] [µM] | GI50 [4] [µM] | GI50 [5] [µM] | GI50 [6] [µM] | GI50 [7] [µM] | GI50 [8] [µM] | GI50 [9] [µM] | GI50 [10] [µM] |
| --- | --- | --- | --- | --- | --- | --- | --- | --- | --- | --- | --- | --- | --- | --- | --- | --- | --- | --- | --- | --- |
| O=S(=O)(c1ccc(NC2=NC(c3ccc(O)cc3)(c3ccccc3O)c3ccccc32)cc1)c1ccc(NC2=NC(c3ccc(O)cc3)(c3ccccc3O)c3ccccc32)cc1 (centres undefined) | > 100 | > 24.6 | > 100 | 22.2 | 25.2 | > 33.6 | > 73.6 | > 47.9 | > 44.5 | 22.9 |  |  |  |  |  |  |  |  |  |  |
| Cc1ccc2c(=O)cc(-c3ccc(Cl)s3)[nH]c2n1 | > 100 | > 100 | 3.93 | > 100 | > 55.3 | 28.8 | > 100 | > 100 | > 81.6 | > 100 |  |  |  |  |  |  |  |  |  |  |
| Cc1cc(F)ccc1S(=O)(=O)Nc1cc(-c2c(O)ccc3ccccc23)c(O)c2ccccc12 | 13.6 | 10.9 | 3.59 | 8.68 | 11.3 | 4.94 | 17.4 | 9.33 | 14.3 | 5.73 | 3.05 | 3.18 | 1.83 | 2.89 | 2.7 | 2.08 | 4.55 | 2.6 | 3.4 | 2 |
| CC1CCCC2(CC[N+](C)(CCC[N+](C)(C)C)CC2)C1 (centres undefined) | > 100 | > 100 | > 100 | > 100 | > 100 | > 100 | > 100 | > 100 | > 100 | > 100 |  |  |  |  |  |  |  |  |  |  |
| C[C@H](NC(=O)C(Cc1ccccc1)(Cc1ccc(O)cn1)NC(=O)c1ccccc1)c1ccccc1 (some centres undefined) | 44.6 | 37.3 | 34.2 | 37 | 28.7 | 35.1 | 37.4 | 34.5 | 39.1 | 27.6 |  |  |  |  |  |  |  |  |  |  |
| COC(=O)C1(Cc2ccc3c(c2)CCC3)Cc2ccccc2C1O (centres undefined) | 60.1 | 36.7 | 33.1 | 51.7 | 31.8 | 33.8 | 80 | 31.5 | 41.6 | 27.4 |  |  |  |  |  |  |  |  |  |  |
| O=C1CCCCC/C1=C\c1ccc([N+](=O)[O-])cc1 | > 100 | > 100 | 62.5 | 34.5 | 57.6 | 49.2 | > 100 | 54.9 | 82 | > 100 |  |  |  |  |  |  |  |  |  |  |
| CC(=C(c1ccccc1)c1ccccc1)N1C(=O)CC(=O)N1C | > 100 | > 100 | > 100 | 39 | > 100 | > 100 | > 100 | > 100 | > 100 | > 100 |  |  |  |  |  |  |  |  |  |  |
| COc1cccc(CCN2CCN(CCCc3ccccc3)CC2)c1 | > 100 | > 100 | > 100 | > 100 | > 100 | 45.2 | > 100 | > 100 | > 100 | > 100 |  |  |  |  |  |  |  |  |  |  |
| CN(C)c1nc(N)nc(CS)n1 | > 100 | > 100 | > 100 | > 100 | > 100 | > 100 | > 100 | > 100 | > 100 | > 100 |  |  |  |  |  |  |  |  |  |  |
| CCNC(=S)N=Nc1c(O)[nH]c2ccc([N+](=O)[O-])cc12 | > 100 | > 100 | > 100 | > 100 | > 100 | > 100 | > 100 | > 100 | > 100 | > 100 |  |  |  |  |  |  |  |  |  |  |
| O=C1C[C@@H](C(=O)OCc2ccccc2)NC(=O)C[C@@H](C(=O)OCc2ccccc2)NC(=O)C[C@@H](C(=O)OCc2ccccc2)N1 | > 100 | > 100 | > 72.3 | > 100 | > 100 | > 100 | > 100 | > 100 | 85.8 | 66.1 |  |  |  |  |  |  |  |  |  |  |
| C=C[C@@H](C)[C@H](NS(=O)(=O)c1ccc(C)cc1)C(=O)OCC | > 100 | 47.2 | > 100 | 77.3 | > 100 | > 100 | > 100 | 71.5 | > 100 | > 100 |  |  |  |  |  |  |  |  |  |  |
| Cc1ccc(OCC2OC(n3cnc4c(Cl)nc(N)nc43)CC2Oc2ccc(C)cc2)cc1 (centres undefined) | > 75.5 | > 100 | > 100 | 61.5 | > 100 | 98.2 | > 100 | > 100 | > 100 | > 56.9 |  |  |  |  |  |  |  |  |  |  |
| Cc1ccc(/C(O)=C/c2nc3ccccc3sc2=O)c(C)c1 | > 100 | > 100 | > 100 | > 100 | > 100 | > 100 | > 100 | > 100 | > 100 | > 100 |  |  |  |  |  |  |  |  |  |  |
| Cc1ccc([S@](=O)c2occc2C=O)cc1 | > 61 | 20.8 | 25.8 | 31.2 | 9.64 | 28.9 | 34.7 | 26.3 | 14.9 | 29.2 |  |  |  |  |  |  |  |  |  |  |
| CC(NC(=O)C(NC(=O)CNC(=O)OC(C)(C)C)C(C)C)C(=O)Oc1c(Cl)c(Cl)c(Cl)c(Cl)c1Cl (centres undefined) | 39.1 | 61.3 | 33.4 | 46.6 | 31.2 | 43.2 | 31.6 | 44.7 | 65.2 | 30.3 |  |  |  |  |  |  |  |  |  |  |
| OCC(O)C(O)C(O)C(O)c1nc2ccc(Cl)cc2[nH]1 (centres undefined) | > 100 | > 100 | > 100 | > 100 | > 100 | > 100 | > 100 | > 100 | > 100 | > 100 |  |  |  |  |  |  |  |  |  |  |
| CC1C(=O)N(c2ccccc2)NC12CCCc1ccccc12 (centres undefined) | > 100 | > 100 | > 100 | > 100 | > 100 | > 100 | > 100 | > 100 | > 100 | > 100 |  |  |  |  |  |  |  |  |  |  |
| NS(=O)(=O)c1ccc(/C=C/c2ccc(F)cc2)cc1 | > 100 | > 100 | 96.1 | 61.9 | 50.3 | > 100 | > 100 | > 100 | > 100 | 86.7 |  | 27 | 29.1 | 20.9 |  |  |  |  | 20.5 |  |
| OC1(c2ccccc2)CCN(Cc2c[nH]c3ccccc23)CC1 | > 100 | > 100 | > 100 | > 100 | > 100 | 31.7 | > 100 | 40.4 | > 100 | 36.1 |  |  |  |  |  |  |  |  |  |  |
| CC(C)CNc1nc2ncnc(N)c2[nH]1 | > 100 | > 100 | > 100 | > 100 | > 100 | > 100 | > 100 | > 100 | > 100 | > 100 |  |  |  |  |  |  |  |  |  |  |
| COC(OC)[C@@H]1OC[C@H](n2cnc3c(N)ncnc32)[C@H]1O | > 100 | > 100 | > 100 | > 100 | > 100 | > 100 | > 100 | > 100 | > 100 | > 100 |  |  |  |  |  |  |  |  |  |  |
| OCCO/N=C1\C(c2c(O)[nH]c3ccccc23)=Nc2ccccc21 | > 100 | > 100 | > 100 | > 100 | > 100 | > 100 | > 100 | > 100 | > 100 | > 100 |  |  |  |  |  |  |  |  |  |  |
| CO/N=C1\CC(NC(=O)CNC(=O)OC(C)(C)C)c2ccsc21 (centres undefined) | > 100 | > 100 | > 100 | > 100 | > 100 | > 100 | > 100 | > 100 | > 100 | > 100 |  |  |  |  |  |  |  |  |  |  |
| CC1(C)N/C(=C\C=O)C(C)(C)N1O | > 100 | > 100 | > 100 | > 100 | > 100 | > 100 | > 100 | > 100 | > 100 | > 100 |  |  |  |  |  |  |  |  |  |  |

Reference: PubChem BioAssay (NCI)
